Experimental data reported in patent publication US10906951B2, “Modified natural killer cells and natural killer cell lines having increased cytotoxicity” (ONK THERAPEUTICS LIMITED, priority 2015, dated 2021).
Positions count from the first letter of the chain named. Names and notes keep the numbering of the source. Where two headings read alike, the source gives them in different places.

Key:
DR5 [1] = conditions: low dose, 24 hours, FIG. 18
Procedure: Bortezomib was bought from Millennium Pharmaceuticals. Mouse anti-human DR5-AF647 (catalog number: 565498) was bought from BD Pharmingen. The stained cell samples were analyzed on BD FACS Canto II. (1) MM cell lines RPM18226 and MM1.S were grown in RPM11640 medium (Sigma, St Louis, Mo., USA) supplemented with 2 mM L-glutamine, 10 mM HEPES, 24 mM sodium bicarbonate, 0.01% of antibiotics and 10% fetal bovine serum (Sigma, St Louis, Mo., USA), in 5% CO2 atmosphere at 37° C. (2) MM cells were seeded in 6-well plates at 1×10^6/mL, 2 mL/well. (3) MM cells were then treated with different doses of Bortezomib for 24 hours. (4) DR5 expression in Bortezomib treated/untreated MM cells was then analyzed by flow cytometry (FIG. 18).

MM cells = system: MM cells
Procedure: (1) MM cell lines RPM18226 and MM1.S were grown in RPM11640 medium (Sigma, St Louis, Mo., USA) supplemented with 2 mM L-glutamine, 10 mM HEPES, 24 mM sodium bicarbonate, 0.01% of antibiotics and 10% fetal bovine serum (Sigma, St Louis, Mo., USA), in 5% CO2 atmosphere at 37° C.
(2) MM cells were seeded in 6-well plates at 1×10^6/mL, 2 mL/well.
(3) MM cells were then treated with different doses of Bortezomib for 24 hours.

MM1.S cells = assay: Bortezomib-induced sensitization of MM1.S cells to KHYG-1 cells expressing TRAIL variant; assay type: cell-based; conditions: MM1.S pretreated with 2.5 nM for 24 hours, 1:1 co-culture 12 hours, FIG. 19
Procedure: KHYG-1 cells were transfected with the TRAIL variant (TRAIL D269H/E195R), as described above in Example 6.
(1) Bortezomib treated/untreated MM1.S cells were used as target cells. MM1.S cells were treated with 2.5 nM of Bortzeomib or vehicle (control) for 24 hours.
(2) 6 hours after electroporation of TRAIL variant mRNA, KHYG-1 cells were then cultured with MM cells in 12-well plate. After washing, cell concentrations were adjusted to 1×10^6/mL, before mixing KHYG-1 and MM1.S cells at 1:1 ratio to culture for 12 hours.
(3) Flow cytometric analysis of the cytotoxicity of KHYG-1 cells was carried out. The co-cultured cells were collected, washed and then stained with CD2-APC antibody (5 uL/test), AnnexinV-FITC (5 uL/test) and SYTOX-Green (5 uL/test) using AnnexinV binding buffer.
(4) Data were further analyzed using FlowJo 7.6.2 software. CD2-negative population represents MM1.S cells. KHYG-1 cells are strongly positive for CD2. Finally, the AnnexinV-FITC and SYTOX-Green positive cells in the CD2-negative population were analyzed.
Flow cytometric analysis of apoptosis was performed in Bortezomib-pretreated/untreated MM1.S cells co-cultured with KHYG-1 cells electroporated with/without TRAIL variant (FIG. 19).

perforin = assay: CMA-induced reduction of perforin expression in KHYG-1 cells, flow cytometry; assay type: cell-based, human; conditions: 100 nM for 2 hours, FIG. 20
Procedure: Mouse anti-human perforin-AF647 (catalog number: 563576) was bought from BD pharmingen. Concanamycin A (catalog number: SC-202111) was bought from Santa Cruz Biotechnology. The stained cell samples were analyzed using a BD FACS Canto II.
(1) KHYG-1 cells were cultured in RPM11640 medium containing 10% FBS (fetal bovine serum), 2 mM L-glutamine, penicillin (100 U/mL)/streptomycin ([…]), and IL-2 (10 ng/mL).
(§1) (2) KHYG-1 cells (6 hours after electroporation, cultured in penicillin/streptomycin free RPMI1640 medium) were further treated with 100 nM CMA or equal volume of vehicle (DMSO) for 2 hours.
(3) The cells were collected (1×10^6 cells/test) by centrifugation (1500 rpm×5 minutes) and the supernatant was aspirated.
(4) The cells were fixed in 4% paraformaldehyde in PBS solution at room temperature for 15 minutes.
(5) The cells were washed with 4 mL of FACS Buffer (PBS, 0.5-1% BSA, 0.1% sodium azide) twice.
(6) The cells were permeabilized with 1 mL of PBS/0.1% saponin buffer for 30 minutes at room temperature.
(7) The cells were washed with 4 mL of PBS/0.1% saponin buffer.
(8) The cells were re-suspended in 100 uL of PBS/0.1% saponin buffer, before adding 5 uL of the antibody to each tube and incubating for 30 minutes on ice. […]
(11) The cells were analyzed on the flow cytometer (BD FACS Canto II). […]

KHYG-1 cells = assay: KHYG-1 cell viability after CMA treatment; assay type: cell-based; conditions: 100 nM CMA or vehicle, FIG. 21
Procedure: as §1

DR4 = DR4 (Homo sapiens, UniProt O00220); conditions: surface plasmon resonance; WO 2009/077857; cited from earlier work
decoy receptor DcR1 = target: T1, decoy receptor DcR1 (Homo sapiens, UniProt O14798); conditions: surface plasmon resonance; WO 2009/077857; cited from earlier work
T1 sequence (O14798 26-236): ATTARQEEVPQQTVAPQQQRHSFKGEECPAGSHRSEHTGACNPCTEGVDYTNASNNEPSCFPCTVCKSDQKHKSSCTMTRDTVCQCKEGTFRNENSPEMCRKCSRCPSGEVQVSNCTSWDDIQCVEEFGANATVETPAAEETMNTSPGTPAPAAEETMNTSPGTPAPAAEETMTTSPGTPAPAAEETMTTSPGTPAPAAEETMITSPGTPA

CTLA4 gene = assay: gRNA cleavage activity, T7E1 mismatch detection assay in K562 cells, CTLA4; assay type: cell-based, human; conditions: CRISPR/Cas9, T7E1 mismatch assay, FIG. 5
Excerpt: (§2) Two gRNA candidates were selected for each target gene and their cleavage efficacies in K562 cells determined. The sequences of the gRNA candidates are shown in Table 1 and the Protospacer Adjacent Motif (PAM) relates to the last 3 bases of the sequence. The flanking regions of the gRNA sequences on the LIR2 gene (SEQ ID NO: 1) and the CTLA4 gene (SEQ ID NO: 7) are shown in FIGS. 1 and 2, respectively.
(§3) K562 cells were transfected with the prepared gRNA constructs (FIG. 3) and subsequently harvested for PCR amplification. The presence of GFP expression was used to report successful incorporation of the gRNA construct into the K562 cells. This confirmed expression of the Cas9 gene and therefore the ability to knock out expression of the LIR2 and CTLA4 genes.
(§4) The cleavage activity of the gRNA constructs was determined using an in vitro mismatch detection assay. T7E1 endonuclease I recognises and cleaves non-perfectly matched DNA, allowing the parental LIR2 and CTLA4 genes to be compared to the mutated genes following CRISPR/Cas9 transfection and non-homologous end joining (NHEJ).

LIR2 gene = assay: gRNA cleavage activity, T7E1 mismatch detection assay in K562 cells, LIR2; assay type: cell-based, human; conditions: CRISPR/Cas9, T7E1 mismatch assay, FIG. 4
Excerpt: as §2, §3, §4

DR5 [2] = target: DR5 (Homo sapiens, UniProt O14763); conditions: in words; known from WO 2009/077857, Van der Sloot 2006, MacFarlane 2005, WO 01/00832; cited from earlier work
[3] = system: TRAIL decoy receptors (DcR1 and DcR2); conditions: in words; known from WO 2009/077857, Leary 2016, WO 01/00832; cited from earlier work

## CC(C)C[C@H](NC(=O)[C@H](Cc1ccccc1)NC(=O)c1cnccn1)B(O)O [Bortezomib]
DR5 [1]; MM1.S cells
  DR5 expression: increase DR5 expression
DR5 [1]; RPMI8226 cells
  DR5 expression: increase DR5 expression
MM cells; high doses
  toxicity at high doses: high toxicity resulting in most of the MM cells dying
MM cells; low dose, data not shown
  induction of apoptosis associated with DR5 upregulation: minor induction of apoptosis
MM1.S cells
  sensitivity of MM cells to KHYG-1 cells expressing the TRAIL variant: induced sensitivity of MM cells

## C/C=C/[C@H]1O[C@@](O)([C@@H](C)[C@H](O)[C@H](C)[C@H]2OC(=O)/C(OC)=C/C(C)=C/[C@@H](C)[C@@H](O)[C@@H](CC)[C@@H](O)[C@H](C)C/C(C)=C/C=C/[C@@H]2OC)C[C@@H](O[C@H]2C[C@@H](O)[C@H](OC(N)=O)[C@@H](C)O2)[C@@H]1C [CMA, Concanamycin A]
perforin
  perforin expression level: significantly decreased
KHYG-1 cells
  viability of KHYG-1 cells: no negative effects

## Wildtype TRAIL: wildtype TRAIL ligand; DNA sequence SEQ ID NO: 13
DR4
  Kd: > 2 nM
Decoy receptor DcR1
  Kd: > 20 nM

## g7 gRNA: CTLA4 g7 gRNA sequence CACTCACCTTTGCAGAAGACAGG (expressed or natural sequence; listed as Homo sapiens)
CTLA4 gene
  gRNA cleavage efficiency (CTLA4 knockout): 32%

## g9 gRNA: LIR2 g9 gRNA sequence GAGTCACAGGTGGCATTTGGCGG (expressed or natural sequence; listed as Homo sapiens)
LIR2 gene
  gRNA cleavage efficiency (LIR2 knockout): 11%

## g15 gRNA: CTLA4 g15 gRNA sequence CCTTGTGCCGCTGAAATCCAAGG (expressed or natural sequence; listed as Homo sapiens)
CTLA4 gene
  gRNA cleavage efficiency (CTLA4 knockout): 26%

## g18 gRNA: LIR2 g18 gRNA sequence CGAATCGCAGGTGGTCGCACAGG (expressed or natural sequence; listed as Homo sapiens)
LIR2 gene
  gRNA cleavage efficiency (LIR2 knockout): 10%

B1: TRAIL variant (D269H/E195R): TRAIL variant of WO 2009/077857, encoded by the wildtype TRAIL gene containing the D269H/E195R mutation (protein)
chain: MAMMEVQGGPSLGQTCVLIVIFTVLLQSLCVAVTYVYFTNELKQMQDKYSKSGIACFLKEDDSYWDPNDEESMNSPCWQVKWQLRQLVRKMILRTSEETISTVQEKQQNISPLVRERGPQRVAAHITGTRGRSNTLSSPNSKNEKALGRKINSWESSRSGHSFLSNLHLRNGELVIHEKGFYYIYSQTYFRFQERIKENTKNDKQMVQYIYKYTSYPDPILLMKSARNSCWSKDAEYGLYSIYQGGIFELKENDRIFVSVTNEHLIDMHHEASFFGAFLVG
DR5 [2]
  affinity for DR5: significantly increases the affinity
[3]
  affinity for TRAIL decoy receptors: reducing the affinity

B2: T261L/G160E/H270D/T200H: TRAIL DcR variant, Leary 2016 (protein, UniProt P50591 1-281, looked up, variant T261L G160E H270D T200H)
Tumor necrosis factor ligand …: B1 chain with G160E, R195E, T200H, T261L, H269D, H270D
[3]
  affinity for TRAIL decoy receptors: decreased affinity for TRAIL decoy receptors

B3: D218A: TRAIL DcR variant, WO 01/00832 (protein, UniProt P50591 1-281, looked up, variant D218A)
Tumor necrosis factor ligand …: B1 chain with R195E, D218A, H269D
[3]
  affinity for TRAIL decoy receptors: DcR variants
